Key:
[1] = biological target: T1, Phosphatidylinositol 4,5-bisphosphate 3-kinase catalytic subunit delta isoform (Homo sapiens, UniProt O00329); test: Inhibition of PI3Kdelta (unknown origin) incubated for 60 mins by kinase-glo luminescence assay
T1 sequence (O00329 whole entry): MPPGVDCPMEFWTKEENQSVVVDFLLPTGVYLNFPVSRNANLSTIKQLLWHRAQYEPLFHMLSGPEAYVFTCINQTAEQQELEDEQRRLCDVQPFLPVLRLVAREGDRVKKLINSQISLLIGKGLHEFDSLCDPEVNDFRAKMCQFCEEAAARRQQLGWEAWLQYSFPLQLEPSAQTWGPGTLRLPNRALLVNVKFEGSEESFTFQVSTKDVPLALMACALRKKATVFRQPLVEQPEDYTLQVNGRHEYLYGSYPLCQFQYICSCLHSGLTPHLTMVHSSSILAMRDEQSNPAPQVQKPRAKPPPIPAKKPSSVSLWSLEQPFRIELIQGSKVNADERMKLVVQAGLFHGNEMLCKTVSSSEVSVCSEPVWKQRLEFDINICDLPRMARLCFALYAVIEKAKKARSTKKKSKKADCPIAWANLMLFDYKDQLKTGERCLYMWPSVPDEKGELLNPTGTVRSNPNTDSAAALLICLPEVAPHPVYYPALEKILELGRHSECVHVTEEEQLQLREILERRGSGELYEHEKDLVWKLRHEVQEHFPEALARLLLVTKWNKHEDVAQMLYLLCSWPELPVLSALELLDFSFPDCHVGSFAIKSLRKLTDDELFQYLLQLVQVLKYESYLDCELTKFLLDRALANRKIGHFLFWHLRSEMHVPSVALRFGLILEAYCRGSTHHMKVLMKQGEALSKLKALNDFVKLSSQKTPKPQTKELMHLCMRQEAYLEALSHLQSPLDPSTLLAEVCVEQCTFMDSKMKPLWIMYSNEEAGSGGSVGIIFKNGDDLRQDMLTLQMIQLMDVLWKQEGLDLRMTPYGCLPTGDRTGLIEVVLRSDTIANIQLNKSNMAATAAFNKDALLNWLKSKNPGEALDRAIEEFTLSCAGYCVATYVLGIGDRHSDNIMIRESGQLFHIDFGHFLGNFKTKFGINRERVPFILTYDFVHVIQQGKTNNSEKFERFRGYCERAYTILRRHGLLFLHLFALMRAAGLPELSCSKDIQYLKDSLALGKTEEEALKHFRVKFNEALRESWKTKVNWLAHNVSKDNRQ

[2] = biological target: DNA-dependent protein kinase catalytic subunit (Homo sapiens, UniProt P78527); test: Inhibition of human DNA-PK using EPPLSQEAFADLWKK as substrate by HTRF assay
DNA-dependent protein kinase catalytic subunit, sequence (P78527 whole entry): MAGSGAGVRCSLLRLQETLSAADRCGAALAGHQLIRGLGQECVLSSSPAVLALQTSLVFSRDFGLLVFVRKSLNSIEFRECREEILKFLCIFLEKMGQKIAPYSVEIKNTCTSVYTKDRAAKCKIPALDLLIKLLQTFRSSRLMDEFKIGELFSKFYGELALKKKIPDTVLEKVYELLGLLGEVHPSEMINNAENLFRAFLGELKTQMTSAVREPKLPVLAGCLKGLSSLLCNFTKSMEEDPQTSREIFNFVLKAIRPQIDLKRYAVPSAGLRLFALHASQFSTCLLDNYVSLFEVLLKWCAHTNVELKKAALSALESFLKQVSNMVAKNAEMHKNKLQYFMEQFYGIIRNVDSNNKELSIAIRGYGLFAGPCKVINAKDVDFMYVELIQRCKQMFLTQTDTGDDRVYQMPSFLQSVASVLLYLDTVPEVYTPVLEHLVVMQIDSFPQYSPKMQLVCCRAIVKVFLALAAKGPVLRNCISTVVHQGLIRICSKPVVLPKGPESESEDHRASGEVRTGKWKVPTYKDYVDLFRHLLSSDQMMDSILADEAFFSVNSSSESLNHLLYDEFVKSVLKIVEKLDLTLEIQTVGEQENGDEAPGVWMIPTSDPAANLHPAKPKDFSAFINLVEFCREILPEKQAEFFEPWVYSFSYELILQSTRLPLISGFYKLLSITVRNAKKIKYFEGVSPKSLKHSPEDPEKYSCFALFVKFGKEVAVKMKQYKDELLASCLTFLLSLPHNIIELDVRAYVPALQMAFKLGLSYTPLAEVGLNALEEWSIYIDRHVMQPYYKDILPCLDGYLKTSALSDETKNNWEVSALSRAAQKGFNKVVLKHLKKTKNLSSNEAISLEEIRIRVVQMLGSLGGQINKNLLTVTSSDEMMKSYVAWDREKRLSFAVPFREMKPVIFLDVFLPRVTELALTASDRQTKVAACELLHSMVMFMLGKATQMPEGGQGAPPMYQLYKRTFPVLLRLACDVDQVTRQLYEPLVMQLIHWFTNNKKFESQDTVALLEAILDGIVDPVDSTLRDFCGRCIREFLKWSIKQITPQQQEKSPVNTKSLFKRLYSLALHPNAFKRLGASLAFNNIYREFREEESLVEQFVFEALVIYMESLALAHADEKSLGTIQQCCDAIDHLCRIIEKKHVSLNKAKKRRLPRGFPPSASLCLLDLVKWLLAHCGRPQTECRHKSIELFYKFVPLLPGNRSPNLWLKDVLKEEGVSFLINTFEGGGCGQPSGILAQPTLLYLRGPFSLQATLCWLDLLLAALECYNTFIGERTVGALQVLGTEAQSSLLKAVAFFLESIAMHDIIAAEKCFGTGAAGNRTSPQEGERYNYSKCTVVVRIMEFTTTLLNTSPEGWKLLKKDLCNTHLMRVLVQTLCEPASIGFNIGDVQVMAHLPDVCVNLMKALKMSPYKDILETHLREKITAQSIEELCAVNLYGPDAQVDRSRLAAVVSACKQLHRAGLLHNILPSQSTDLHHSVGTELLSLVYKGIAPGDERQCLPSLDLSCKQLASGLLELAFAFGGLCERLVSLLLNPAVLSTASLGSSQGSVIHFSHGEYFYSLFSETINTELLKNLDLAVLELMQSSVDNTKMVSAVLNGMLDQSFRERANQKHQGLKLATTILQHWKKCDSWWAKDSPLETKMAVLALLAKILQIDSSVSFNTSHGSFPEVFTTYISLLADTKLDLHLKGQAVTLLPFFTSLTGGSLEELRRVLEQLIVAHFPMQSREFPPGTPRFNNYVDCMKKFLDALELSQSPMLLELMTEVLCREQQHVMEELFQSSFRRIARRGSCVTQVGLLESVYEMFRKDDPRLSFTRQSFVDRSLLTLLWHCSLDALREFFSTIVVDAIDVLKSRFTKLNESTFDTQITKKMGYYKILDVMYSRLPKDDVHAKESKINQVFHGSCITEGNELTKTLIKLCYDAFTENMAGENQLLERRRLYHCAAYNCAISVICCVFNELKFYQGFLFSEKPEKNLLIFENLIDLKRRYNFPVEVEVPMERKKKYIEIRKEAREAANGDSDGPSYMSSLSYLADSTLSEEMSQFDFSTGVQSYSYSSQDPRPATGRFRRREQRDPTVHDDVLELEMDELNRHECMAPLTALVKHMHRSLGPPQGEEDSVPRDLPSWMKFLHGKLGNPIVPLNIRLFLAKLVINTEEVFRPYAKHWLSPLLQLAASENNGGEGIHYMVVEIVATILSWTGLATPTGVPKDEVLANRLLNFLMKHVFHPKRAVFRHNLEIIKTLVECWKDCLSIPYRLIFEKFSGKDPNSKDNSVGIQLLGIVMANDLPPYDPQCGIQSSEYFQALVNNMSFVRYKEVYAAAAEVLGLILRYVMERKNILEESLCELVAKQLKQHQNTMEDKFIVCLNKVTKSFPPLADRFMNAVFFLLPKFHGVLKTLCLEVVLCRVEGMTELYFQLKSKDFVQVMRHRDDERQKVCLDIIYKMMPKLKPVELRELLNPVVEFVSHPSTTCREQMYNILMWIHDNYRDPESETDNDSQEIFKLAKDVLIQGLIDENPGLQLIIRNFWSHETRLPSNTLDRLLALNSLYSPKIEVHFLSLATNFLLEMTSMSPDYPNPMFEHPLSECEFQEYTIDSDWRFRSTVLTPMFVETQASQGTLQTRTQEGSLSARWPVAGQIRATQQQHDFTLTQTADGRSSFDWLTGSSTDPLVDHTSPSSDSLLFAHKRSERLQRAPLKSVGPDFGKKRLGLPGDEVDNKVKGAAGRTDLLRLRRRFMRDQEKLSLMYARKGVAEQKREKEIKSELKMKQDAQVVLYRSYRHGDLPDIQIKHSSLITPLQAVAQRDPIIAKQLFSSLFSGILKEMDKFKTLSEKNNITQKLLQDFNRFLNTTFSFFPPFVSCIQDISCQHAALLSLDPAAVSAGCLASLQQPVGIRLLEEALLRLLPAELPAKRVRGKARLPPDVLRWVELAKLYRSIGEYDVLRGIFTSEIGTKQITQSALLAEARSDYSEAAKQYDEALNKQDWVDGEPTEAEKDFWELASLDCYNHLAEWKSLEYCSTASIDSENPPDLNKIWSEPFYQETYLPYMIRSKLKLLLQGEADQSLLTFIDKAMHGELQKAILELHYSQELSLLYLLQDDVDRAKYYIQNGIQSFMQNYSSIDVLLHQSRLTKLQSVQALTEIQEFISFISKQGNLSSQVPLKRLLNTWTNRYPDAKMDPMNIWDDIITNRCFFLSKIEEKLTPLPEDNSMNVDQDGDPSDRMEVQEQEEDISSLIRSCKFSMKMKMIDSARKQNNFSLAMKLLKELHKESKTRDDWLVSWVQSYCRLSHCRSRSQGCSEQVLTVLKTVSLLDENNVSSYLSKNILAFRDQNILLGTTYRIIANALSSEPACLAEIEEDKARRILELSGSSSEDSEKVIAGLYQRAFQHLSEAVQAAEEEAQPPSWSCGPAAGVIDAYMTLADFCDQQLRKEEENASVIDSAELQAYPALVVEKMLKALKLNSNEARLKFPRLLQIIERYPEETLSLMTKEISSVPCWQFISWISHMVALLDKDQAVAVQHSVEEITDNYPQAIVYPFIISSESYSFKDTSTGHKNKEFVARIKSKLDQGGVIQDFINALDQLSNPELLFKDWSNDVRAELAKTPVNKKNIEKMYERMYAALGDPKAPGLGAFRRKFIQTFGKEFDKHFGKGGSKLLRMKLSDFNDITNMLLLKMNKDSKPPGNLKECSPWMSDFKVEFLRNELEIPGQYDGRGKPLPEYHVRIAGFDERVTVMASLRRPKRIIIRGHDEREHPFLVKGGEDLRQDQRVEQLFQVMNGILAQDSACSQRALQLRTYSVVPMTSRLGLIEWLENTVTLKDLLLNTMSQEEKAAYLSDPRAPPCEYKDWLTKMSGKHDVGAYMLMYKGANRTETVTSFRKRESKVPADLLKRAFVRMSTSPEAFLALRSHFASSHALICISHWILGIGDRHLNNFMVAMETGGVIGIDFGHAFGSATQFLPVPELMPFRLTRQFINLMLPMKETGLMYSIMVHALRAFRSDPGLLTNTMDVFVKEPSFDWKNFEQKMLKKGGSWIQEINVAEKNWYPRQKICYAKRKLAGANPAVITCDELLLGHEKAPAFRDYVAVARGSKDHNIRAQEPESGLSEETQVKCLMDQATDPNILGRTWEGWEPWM

CCRF-CEM = test: Cytotoxicity against human CCRF-CEM cells assessed as cell growth inhibition at 10 uM after 48 hrs by SRB assay relative to control; type: functional; details: read-out: GI
SR = test: Cytotoxicity against human SR cells assessed as cell growth inhibition at 10 uM after 48 hrs by SRB assay relative to control; type: functional; details: read-out: GI
EKVX = test: Cytotoxicity against human EKVX cells assessed as cell growth inhibition at 10 uM after 48 hrs by SRB assay relative to control; type: functional; details: read-out: GI
[3] = Cytotoxicity against human HOP62 cells assessed as cell growth inhibition at 10 uM after 48 hrs by SRB assay relative to control; type: functional; details: HOP-62, 48 h, read-out: GI
[4] = Cytotoxicity against human HOP92 cells assessed as cell growth inhibition at 10 uM after 48 hrs by SRB assay relative to control; type: functional; details: HOP-92, 48 h, read-out: GI
NCI-H23 = test: Cytotoxicity against human NCI-H23 cells assessed as cell growth inhibition at 10 uM after 48 hrs by SRB assay relative to control; type: functional; details: NCI-H23, 48 h, read-out: GI
NCI-H322M = test: Cytotoxicity against human NCI-H322M cells assessed as cell growth inhibition at 10 uM after 48 hrs by SRB assay relative to control; type: functional; details: read-out: GI
NCI-H522 = test: Cytotoxicity against human NCI-H522 cells assessed as cell growth inhibition at 10 uM after 48 hrs by SRB assay relative to control; type: functional; details: NCI-H522, 48 h, read-out: GI
[5] = Cytotoxicity against human COLO205 cells assessed as cell growth inhibition at 10 uM after 48 hrs by SRB assay relative to control; type: functional; details: COLO 205, 48 h, read-out: GI
KM12 = test: Cytotoxicity against human KM12 cells assessed as cell growth inhibition at 10 uM after 48 hrs by SRB assay relative to control; type: functional; details: KM12, 48 h, read-out: GI
[6] = Cytotoxicity against human SF268 cells assessed as cell growth inhibition at 10 uM after 48 hrs by SRB assay relative to control; type: functional; details: SF-268, 48 h, read-out: GI
[7] = Cytotoxicity against human SNB75 cells assessed as cell growth inhibition at 10 uM after 48 hrs by SRB assay relative to control; type: functional; details: SNB-75, 48 h, read-out: GI
[8] = Cytotoxicity against human LOXIMVI cells assessed as cell growth inhibition at 10 uM after 48 hrs by SRB assay relative to control; type: functional; details: LOX IMVI, read-out: GI
SK-MEL-28 = test: Cytotoxicity against human SK-MEL-28 cells assessed as cell growth inhibition at 10 uM after 48 hrs by SRB assay relative to control; type: functional; details: SK-MEL-28, 48 h, read-out: GI
[9] = Cytotoxicity against human UACC257 cells assessed as cell growth inhibition at 10 uM after 48 hrs by SRB assay relative to control; type: functional; details: UACC-257, 48 h, read-out: GI
[10] = Cytotoxicity against human OVCAR4 cells assessed as cell growth inhibition at 10 uM after 48 hrs by SRB assay relative to control; type: functional; details: OVCAR-4, 48 h, read-out: GI
[11] = Cytotoxicity against human OVCAR8 cells assessed as cell growth inhibition at 10 uM after 48 hrs by SRB assay relative to control; type: functional; details: OVCAR-8, 48 h, read-out: GI
786-0 = test: Cytotoxicity against human 786-0 cells assessed as cell growth inhibition at 10 uM after 48 hrs by SRB assay relative to control; type: functional; details: 786-0, 48 h, read-out: GI
A498 = test: Cytotoxicity against human A498 cells assessed as cell growth inhibition at 10 uM after 48 hrs by SRB assay relative to control; type: functional; details: A498, 48 h, read-out: GI
[12] = Cytotoxicity against human UO31 cells assessed as cell growth inhibition at 10 uM after 48 hrs by SRB assay relative to control; type: functional; details: UO-31, 48 h, read-out: GI
[13] = Cytotoxicity against human Hs 578T cells assessed as cell growth inhibition at 10 uM after 48 hrs by SRB assay relative to control; type: functional; details: read-out: GI
[14] = Cytotoxicity against human BT549 cells assessed as cell growth inhibition at 10 uM after 48 hrs by SRB assay relative to control; type: functional; details: BT-549, 48 h, read-out: GI
MDA-MB-468 = test: Cytotoxicity against human MDA-MB-468 cells assessed as cell growth inhibition at 10 uM after 48 hrs by SRB assay relative to control; type: functional; details: MDA-MB-468, 48 h, read-out: GI

O=c1nc(N2CCOCC2)oc2c(-c3cccc4c3sc3ccccc34)cccc12
IC50 [1]: 8.5 µM | IC50 [2]: 0.034 µM | inhibition of growth at 10 µM (CCRF-CEM): 19.9% | inhibition of growth at 10 µM (SR): 50.9% | inhibition of growth at 10 µM (EKVX): 28.3% | inhibition of growth at 10 µM [3]: 26.8% | inhibition of growth at 10 µM [4]: 53.8% | inhibition of growth at 10 µM (NCI-H23): 13.4% | inhibition of growth at 10 µM (NCI-H322M): 18.3% | inhibition of growth at 10 µM (NCI-H522): 28.6% | inhibition of growth at 10 µM [5]: 3.36% | inhibition of growth at 10 µM (KM12): 21.6% | inhibition of growth at 10 µM [6]: 15.2% | inhibition of growth at 10 µM [7]: 53% | inhibition of growth at 10 µM [8]: 21.3% | inhibition of growth at 10 µM (SK-MEL-28): -2.77% | inhibition of growth at 10 µM [9]: 5.04% | inhibition of growth at 10 µM [10]: 7.25% | inhibition of growth at 10 µM [11]: 20.2% | inhibition of growth at 10 µM (786-0): 27.7% | inhibition of growth at 10 µM (A498): 46.4% | inhibition of growth at 10 µM [12]: 52% | inhibition of growth at 10 µM [13]: 24.8% | inhibition of growth at 10 µM [14]: 13.6% | inhibition of growth at 10 µM (MDA-MB-468): 26.2%

O=c1nc(N2CCOCC2)oc2c(-c3ccsc3)cccc12
IC50 [1]: 4.8 µM | IC50 [2]: 9.8 µM | inhibition of growth at 10 µM (CCRF-CEM): 8.93% | inhibition of growth at 10 µM (SR): 21.9% | inhibition of growth at 10 µM (EKVX): 16.3% | inhibition of growth at 10 µM [3]: 15.3% | inhibition of growth at 10 µM [4]: 40.7% | inhibition of growth at 10 µM (NCI-H23): 15.4% | inhibition of growth at 10 µM (NCI-H322M): 16% | inhibition of growth at 10 µM (NCI-H522): 0.83% | inhibition of growth at 10 µM [5]: -5.35% | inhibition of growth at 10 µM (KM12): 2.74% | inhibition of growth at 10 µM [6]: 13.1% | inhibition of growth at 10 µM [7]: 38.8% | inhibition of growth at 10 µM [8]: 10.6% | inhibition of growth at 10 µM (SK-MEL-28): 8.4% | inhibition of growth at 10 µM [9]: 1.24% | inhibition of growth at 10 µM [10]: 3.41% | inhibition of growth at 10 µM [11]: 3.77% | inhibition of growth at 10 µM (786-0): 11.9% | inhibition of growth at 10 µM (A498): 37.2% | inhibition of growth at 10 µM [12]: 23.4% | inhibition of growth at 10 µM [13]: 9.35% | inhibition of growth at 10 µM [14]: 4.54% | inhibition of growth at 10 µM (MDA-MB-468): 15%

O=c1nc(N2CCOCC2)oc2c(-c3cccc4ccccc34)cccc12
IC50 [1]: 0.64 µM | IC50 [2]: 20.3 µM | inhibition of growth at 10 µM (CCRF-CEM): 8.52% | inhibition of growth at 10 µM (SR): 27.1% | inhibition of growth at 10 µM (EKVX): 18.9% | inhibition of growth at 10 µM [3]: 19.2% | inhibition of growth at 10 µM [4]: 39.9% | inhibition of growth at 10 µM (NCI-H23): 10.7% | inhibition of growth at 10 µM (NCI-H322M): 9.24% | inhibition of growth at 10 µM (NCI-H522): 18% | inhibition of growth at 10 µM [5]: -3.19% | inhibition of growth at 10 µM (KM12): 12.7% | inhibition of growth at 10 µM [6]: 19.4% | inhibition of growth at 10 µM [7]: 53.1% | inhibition of growth at 10 µM [8]: 19.9% | inhibition of growth at 10 µM (SK-MEL-28): 5.64% | inhibition of growth at 10 µM [9]: 3.51% | inhibition of growth at 10 µM [10]: 2.95% | inhibition of growth at 10 µM [11]: 14.8% | inhibition of growth at 10 µM (786-0): 25.6% | inhibition of growth at 10 µM (A498): 92% | inhibition of growth at 10 µM [12]: 46.6% | inhibition of growth at 10 µM [13]: 16.2% | inhibition of growth at 10 µM [14]: 14.7% | inhibition of growth at 10 µM (MDA-MB-468): 23.5%

O=c1nc(N2CCOCC2)oc2c(-c3cccc4c3oc3ccccc34)cccc12
IC50 [1]: 12 µM | IC50 [2]: 0.269 µM | inhibition of growth at 10 µM (CCRF-CEM): 11.6% | inhibition of growth at 10 µM (SR): 34.7% | inhibition of growth at 10 µM (EKVX): 18.2% | inhibition of growth at 10 µM [3]: 13% | inhibition of growth at 10 µM [4]: 45.6% | inhibition of growth at 10 µM (NCI-H23): 11.1% | inhibition of growth at 10 µM (NCI-H322M): 22.3% | inhibition of growth at 10 µM (NCI-H522): 23% | inhibition of growth at 10 µM [5]: -2.34% | inhibition of growth at 10 µM (KM12): 12.7% | inhibition of growth at 10 µM [6]: 9.26% | inhibition of growth at 10 µM [7]: 41.5% | inhibition of growth at 10 µM [8]: 39.2% | inhibition of growth at 10 µM (SK-MEL-28): 2.4% | inhibition of growth at 10 µM [9]: -3.42% | inhibition of growth at 10 µM [10]: -1.43% | inhibition of growth at 10 µM [11]: 3.88% | inhibition of growth at 10 µM (786-0): 21.8% | inhibition of growth at 10 µM (A498): 27.9% | inhibition of growth at 10 µM [12]: 40.1% | inhibition of growth at 10 µM [13]: 14.6% | inhibition of growth at 10 µM [14]: 2.25% | inhibition of growth at 10 µM (MDA-MB-468): 18.7%

Source: ChEMBL document CHEMBL3763148, “Synthesis, structure elucidation, DNA-PK and PI3K and anti-cancer activity of 8- and 6-aryl-substituted-1-3-benzoxazines” (Eur J Med Chem, 2016)
